PMC6783941, “Synthesis of Ring II/III Fragment of Kanamycin: A New Minimum Structural Motif for Aminoglycoside Recognition” (Antibiotics, 2019)

Target: T1, ANT-(4′) (Staphylococcus aureus, UniProt P05057)
T1 construct: gene knt; pET plasmid pET-ANT-(4′) in E. coli BL21 (printed for MIC strains)
Assay: thermal shift, SYPRO Orange
Type: binding
Conditions: Tris 10 mM pH 8.0, 0.2 mM NaCl; protein 4.4 µM and ligand 10 µM solutions mixed; blank Tm 58 ± 0.1
From the text: thermal shift, SYPRO Orange on ANT-(4′)

T1 sequence (P05057 whole entry): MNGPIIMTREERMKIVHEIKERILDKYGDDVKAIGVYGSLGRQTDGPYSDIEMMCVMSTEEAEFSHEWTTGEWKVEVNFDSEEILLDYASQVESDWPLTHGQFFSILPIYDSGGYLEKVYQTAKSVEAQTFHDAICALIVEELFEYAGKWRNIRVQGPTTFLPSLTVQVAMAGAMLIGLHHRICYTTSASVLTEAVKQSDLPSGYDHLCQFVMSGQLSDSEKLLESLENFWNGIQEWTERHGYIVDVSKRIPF

## NC[C@H]1O[C@H](O[C@H]2[C@H](O)[C@@H](O[C@H]3O[C@H](CO)[C@@H](O)[C@H](N)[C@H]3O)[C@H](N)C[C@@H]2N)[C@H](O)[C@@H](O)[C@@H]1O [compound 1, Kanamycin A]
  1: 61.5 ± 0.1 °C

## NC[C@H]1O[C@H](O[C@H]2[C@H](O)[C@@H](O)[C@H](N)C[C@@H]2N)[C@H](N)[C@@H](O)[C@@H]1O [compound 4, 4-O-(2,6-di-Deoxy-α-D-2,6-di-amine-glucopyranosyl)-2-deoxy-streptamine]
  4: 61 ± 0.1 °C
